The text below walks through data of US7235584B2, “Non-psychotropic cannabinoids” (Pharmos Corporation, priority 2000, dated 2007).

In one assay the test system is cannabimimetic activity. The following applies: in vivo; cited from earlier work.
The next assay concerns TNFα. The assay can be described thus: Inhibition of TNFα in LPS-activated macrophage cell cultures (ELISA). Type of assay: cell-based. As to the method:
Specific aspects of the inflammatory response cascade are mediated by the cytokine TNFα. Inhibition of TNFα production and/or inhibition of TNFα release by the new analogs are assayed in macrophage cell cultures activated with LPS. This serves as another indication of the general anti-inflammatory potential of the novel compounds.
The method for macrophage cell culture growth is identical to the one described in PGE2 assay. Aliquots of the supernatants collected following stimulation with LPS were quantitated for TNFα by enzyme linked immunosorbent assay (ELISA) using HRP conjugated to anti-TNFα antibodies and […] for the colorimetric reaction. The peroxidase catalyzed color reaction was stopped by acidification and the absorbance at 450 nm is measured. The absorbance at this wavelength is proportional to the concentration of TNFα in the sample determined from a standard curve plotting the concentrations of TNFα standards versus their absorbance.
In general terms: ELISA stands for enzyme-linked immunosorbent assay.

Another assay concerns NMDA receptor. The assay can be described thus: [3H]MK-801 displacement radioligand binding, rat forebrain membranes. The following applies: for IC50: displacement of [3H]MK-801, rat forebrain membranes, read-out: NMDA BINDING IC50. As to the method: The identification of possible recognition sites for PRS-211 analogs was carried out by measuring the ability of these PRS-211 analogs to inhibit the binding of MK-801 to rat forebrain membranes.
Brains were removed from Sprague-Dawley rats no more than 5 min after decapitation. Membrane preparations were isolated according to a procedure described previously (Eshhar et al., Brain Res. 476:57, 1989). Prior to radioligand binding measurements, endogenous glutamate present in membranes was removed from the preparation by subjecting the membranes to 3–4 successive washings in 10 mM Tris HCl pH 7.2, performed at 4° C.
The specific binding of the new analogs to NMDA receptors was determined by their ability to displace [^3H]MK-801 from NMDA receptor in rat forebrain preparations. Specifically, rat-forebrain membranes (0.1 mg) were incubated for 2 hours at room temperature with 10 nM of tritiated MK-801 and with the PRS-211 compounds at 3 doses each. Non-specific binding was determined by the use of 0.1 mM MK-801. Following the incubation, bound radioligand was separated from unbound by filtration through GF/B filters. The filters were counted in a β-counter and log of analog concentrations versus % of [^3H]MK-801 specific binding was plotted. The IC50 was calculated from this plot.
Binding of [^3H]MK-801 to membranes was carried out in the presence of 30 μM glycine and 10 μM L-glutamate. Membranes (250 μg protein) were resuspended in 50 mM tris-acetate pH 7.4 buffer and incubated with 10 nM [^3H]MK-801, either alone or in the presence of PRS-211 compounds at 0.1–100 μM concentrations for three hours at room temperature (RT). Reaction buffers used in the different radioligand binding studies contained 10% of an ethanol/Emulphor 620/deionized water mixture. The ratio (by volume) of the respective components in the mixture was 20/3/57. This mixture is required for solubilizing PRS-211 compounds at concentrations above 30 μM. Reaction volume was 1 ml. Non-specific [^3H]MK-801 binding was determined in the presence of 100 μM unlabeled MK-801.
Concentration dependence of certain PRS-211 analogs on inhibition of [^3H]MK-801 binding is illustrated in FIG. 1.
In general terms: In a radioligand displacement assay an active substance lowers the binding of a labelled ligand.

The test system of assay [1] is T1, nitric oxide synthase (NOS).
T1 construct: endogenous in cells
The experiment in a line: Inhibition of nitric oxide synthase, fluorimetric nitrite assay in LPS-stimulated macrophage supernatants. Type of assay: cell-based. Particulars: macrophage cell cultures. Here is the method: As one aspect of the anti-oxidative potential of the novel analogs they were tested for their ability to inhibit the enzyme nitric oxide synthase (NOS). This assay can also serve as another indication of the anti-inflammatory cascade, as well as the anti-oxidative mechanisms.
The final products of NOS are Nitrite (NO2) and Nitrate (NO3). The in vitro fluorimetric assay provides an accurate method for the measurement of the Nitrite, which is the majority of NO products. The principle of the fluorimetric assay is based on the addition of DAN (2,3-diaminonaphthalene) to the aliquots of the supernatants collected from macrophage cell cultures incubated with the new analogs and stimulated with LPS. Following, NaOH was added to convert Nitrite to a fluorescent compound 1(H)-naphthtriazole. The fluorescence was measured immediately in a fluorimeter using excitation wavelength of 365 nm and an emission wavelength of 450 nm.

T1 sequence (P35228 whole entry): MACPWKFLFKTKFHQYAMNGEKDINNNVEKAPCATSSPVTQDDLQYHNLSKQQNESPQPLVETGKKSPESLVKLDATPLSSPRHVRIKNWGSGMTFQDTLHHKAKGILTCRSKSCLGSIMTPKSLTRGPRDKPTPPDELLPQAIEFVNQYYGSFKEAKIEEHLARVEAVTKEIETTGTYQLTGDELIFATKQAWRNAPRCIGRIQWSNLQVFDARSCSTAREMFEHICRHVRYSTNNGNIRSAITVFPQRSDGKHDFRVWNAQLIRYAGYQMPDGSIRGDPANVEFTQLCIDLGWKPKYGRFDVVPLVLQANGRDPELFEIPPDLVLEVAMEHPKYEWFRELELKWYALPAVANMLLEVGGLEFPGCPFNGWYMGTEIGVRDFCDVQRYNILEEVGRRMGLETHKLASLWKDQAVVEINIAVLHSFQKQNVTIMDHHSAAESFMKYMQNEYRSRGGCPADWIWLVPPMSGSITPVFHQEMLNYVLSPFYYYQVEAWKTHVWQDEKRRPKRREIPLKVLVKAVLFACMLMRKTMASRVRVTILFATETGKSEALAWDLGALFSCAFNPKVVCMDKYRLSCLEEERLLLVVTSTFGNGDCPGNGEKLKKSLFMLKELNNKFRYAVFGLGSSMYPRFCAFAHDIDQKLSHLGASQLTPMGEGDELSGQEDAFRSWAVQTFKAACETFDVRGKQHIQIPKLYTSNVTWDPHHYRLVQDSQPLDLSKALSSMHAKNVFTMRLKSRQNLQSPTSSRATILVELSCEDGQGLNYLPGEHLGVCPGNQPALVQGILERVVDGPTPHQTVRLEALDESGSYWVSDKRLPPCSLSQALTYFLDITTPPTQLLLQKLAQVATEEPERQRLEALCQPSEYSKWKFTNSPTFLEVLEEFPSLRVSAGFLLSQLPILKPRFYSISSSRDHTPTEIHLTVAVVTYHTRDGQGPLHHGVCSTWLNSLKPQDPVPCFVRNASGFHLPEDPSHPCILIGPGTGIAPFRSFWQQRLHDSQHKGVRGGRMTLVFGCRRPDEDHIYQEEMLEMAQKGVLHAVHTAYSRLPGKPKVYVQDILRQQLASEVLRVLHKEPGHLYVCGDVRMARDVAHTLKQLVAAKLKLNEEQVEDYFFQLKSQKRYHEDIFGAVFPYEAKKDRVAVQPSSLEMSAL

Consider `CCCCCCC(C)(C)c1cc(O)c2c(c1)OC(C)(C)[C@@H]1CC=C(CO)C[C@@H]21` [HU-210], for which the “cannabimimetic activity relative to Δ-1-tetrahydrocannabinol” value in the assay on cannabimimetic activity is listed as ~100 times.

Turning to `CCCCCCC(C)(C)c1cc(O)c2c(c1)OC(C)(C)[C@H]1CC=C(CN3CCC(N4CCCC4)CC3)C[C@H]21` [211,253-000], the figures for the inhibition at 10 µM (with TNFα; in assay [1]) were 0% and 27%, respectively. In addition, in the assay on NMDA receptor, the “NMDA receptor binding / affinity (in words)” value was “do not exhibit substantial NMDA receptor binding”. Besides, the IC50 on NMDA receptor is > 100 µM.

In the case of `CCCCCCC(C)(C)c1cc(O)c2c(c1)OC(C)(C)[C@H]1CC=C(CN(Cc3ccccc3)c3ccccc3)C[C@H]21` [211,255-000], the inhibition at 10 µM with TNFα was found to be 0%; in assay [1], 7%. In addition, the “NMDA receptor binding / affinity (in words)” value in the assay on NMDA receptor is on record as “do not exhibit substantial NMDA receptor binding”. Further, the IC50 on NMDA receptor was > 100 µM.

`CCCCCCC(C)(C)c1cc(O)c2c(c1)OC(C)(C)[C@H]1CC=C(CN3CCC(N4CCCCC4)CC3)CC21` (single isomer, unassigned; (+)) [211,257-000] had an inhibition at 10 µM in the assay with TNFα of 10%. For the same compound, in the assay with NMDA receptor, the “NMDA receptor binding / affinity (in words)” value is reported as “do not exhibit substantial NMDA receptor binding” and the IC50 was > 100 µM. The same compound had an inhibition at 10 µM in assay [1] of 39%.

For orientation: inhibition means how much of the control response was suppressed. High values mean a strong effect, low ones a weak effect. By IC50 is commonly meant the point on the concentration scale where inhibition reaches its midpoint.
